Structures can show the parent of a compound that is named as a salt.
Tests used:
Settings in all cases: exposure time: 15 min to 3 h acute
Dugesia japonica [1] = assay: corkscrew incidence (% planarians (vehicle-normalised)); higher = higher incidence or increase relative to vehicle control
Procedure: (§1)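 Adult asexual Dugesia japonica planarians (1 per well, 48-well plate, n=24 over technical triplicates) were exposed acutely (15 min to 3 h) to each compound (0.5% DMSO or water vehicle) and screened on a robotic platform for crawl-out, stickiness, body shape, phototaxis, noxious-heat scrunching and locomotion endpoints. Binary endpoints are incidence rate x100 normalised to in-plate vehicle controls. Continuous endpoints are the median response normalised to the plate vehicle median, as % change or difference. Negative incidences after vehicle subtraction were set to 0.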

Dugesia japonica [2] = assay: resting fraction in blue light vs vehicle (difference in fraction x100 vs vehicle); higher = higher incidence or increase relative to vehicle control
Procedure: as §1

Dugesia japonica [3] = assay: total locomotor bursts minus vehicle (bursts difference vs vehicle); higher = higher incidence or increase relative to vehicle control
Procedure: as §1

Dugesia japonica [4] = assay: contracted body shape incidence (% planarians (vehicle-normalised)); higher = higher incidence or increase relative to vehicle control
Procedure: as §1

Dugesia japonica [5] = assay: any abnormal body shape incidence (% planarians (vehicle-normalised)); higher = higher incidence or increase relative to vehicle control
Procedure: as §1

Dugesia japonica [6] = assay: loss of phototaxis incidence (% planarians (vehicle-normalised)); higher = higher incidence or increase relative to vehicle control
Procedure: as §1

Dugesia japonica [7] = assay: speed first 30 s blue light vs vehicle (% change vs vehicle); higher = higher incidence or increase relative to vehicle control
Procedure: as §1

Dugesia japonica [8] = assay: loss of heat-induced scrunching incidence (% planarians (vehicle-normalised)); higher = higher incidence or increase relative to vehicle control
Procedure: as §1

Dugesia japonica [9] = assay: noxious heat displacement strength vs vehicle (% change vs vehicle); higher = higher incidence or increase relative to vehicle control
Procedure: as §1

Dugesia japonica [10] = assay: hyperkinesis incidence (% planarians (vehicle-normalised)); higher = higher incidence or increase relative to vehicle control
Procedure: as §1

Dugesia japonica [11] = assay: crawl-out incidence (% planarians); higher = higher incidence or increase relative to vehicle control
Procedure: as §1, with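 “x100.” for “x100 normalised to in-plate vehicle controls.”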

Dugesia japonica [12] = assay: anxiety (time in outer well region) vs vehicle (% change vs vehicle); higher = higher incidence or increase relative to vehicle control
Procedure: as §1

Dugesia japonica [13] = assay: speed second 30 s blue light vs vehicle (% change vs vehicle); higher = higher incidence or increase relative to vehicle control
Procedure: as §1

Dugesia japonica [14] = assay: C-shape incidence (% planarians (vehicle-normalised)); higher = higher incidence or increase relative to vehicle control
Procedure: as §1

Dugesia japonica [15] = assay: speed in dark vs vehicle (% change vs vehicle); higher = higher incidence or increase relative to vehicle control
Procedure: as §1

Dugesia japonica [16] = assay: pharynx extrusion incidence (% planarians (vehicle-normalised)); higher = higher incidence or increase relative to vehicle control
Procedure: as §1

Dugesia japonica [17] = assay: stickiness incidence (% planarians (vehicle-normalised)); higher = higher incidence or increase relative to vehicle control
Procedure: as §1

Dugesia japonica [18] = assay: resting fraction in dark vs vehicle (difference in fraction x100 vs vehicle); higher = higher incidence or increase relative to vehicle control
Procedure: as §1

| SMILES | corkscrew incidence (Dugesia japonica [1]) | resting fraction in blue light (Dugesia japonica [2]) | total locomotor bursts minus vehicle (Dugesia japonica [3]) | contracted body shape incidence (Dugesia japonica [4]) | any abnormal body shape incidence (Dugesia japonica [5]) | loss of phototaxis incidence (Dugesia japonica [6]) | speed first 30 s blue light (Dugesia japonica [7]) | loss of heat-induced scrunching incidence (Dugesia japonica [8]) | noxious heat displacement strength (Dugesia japonica [9]) | hyperkinesis incidence (Dugesia japonica [10]) | crawl-out incidence (Dugesia japonica [11]) | anxiety (Dugesia japonica [12]) | speed second 30 s blue light (Dugesia japonica [13]) | C-shape incidence (Dugesia japonica [14]) | speed in dark (Dugesia japonica [15]) | pharynx extrusion incidence (Dugesia japonica [16]) | stickiness incidence (Dugesia japonica [17]) | resting fraction in dark (Dugesia japonica [18]) |
| --- | --- | --- | --- | --- | --- | --- | --- | --- | --- | --- | --- | --- | --- | --- | --- | --- | --- | --- |
| CC(NC(C)(C)C)C(=O)c1cccc(Cl)c1 (stereo not given) [bupropion] (316 µM) | 0 | 25.2 | -7 | 0 | 0 | ≤ 0 | -72 | 8.33 | -7.65 | 4.17 | 0 | 5.33 | -21.6 | 0 | 22.5 | 0 | 29.2 | 51.6 |
| CC(NC(C)(C)C)C(=O)c1cccc(Cl)c1 (stereo not given) [bupropion] (1000 µM) | 33.3 | 19.6 | -2.5 | 0 | 50 | ≤ 0 | -64.2 | 83.3 | -39.5 | 45.8 | 0 | 13.4 | -9.8 | 0 | -56.9 | 0 | 37.5 | 56.1 |
| O=C1CC2(CCCC2)CC(=O)N1CCCCN1CCN(c2ncccn2)CC1 [buspirone] (3.16 µM) | 0 | 8.98 | 4.25 | 0 | 8.33 | 16.7 | -21.3 | ≤ 0 | -34.1 | 8.33 | 0 | -2.65 | -34.4 | 0 | 8.61 | 0 | 4.17 | 4.15 |
| O=C1CC2(CCCC2)CC(=O)N1CCCCN1CCN(c2ncccn2)CC1 [buspirone] (10 µM) | 0 | 26.6 | 6.25 | 4.17 | 20.8 | 25 | -68.5 | 8.33 | -46.4 | 20.8 | 0 | -1.55 | -54.8 | 0 | -20.5 | 0 | 16.7 | 16.7 |
| O=C1CC2(CCCC2)CC(=O)N1CCCCN1CCN(c2ncccn2)CC1 [buspirone] (31.6 µM) | 0 | 34.3 | 3.5 | 0 | 16.7 | 54.2 | -64.5 | 62.5 | -57 | 16.7 | 0 | 7.76 | -74.1 | 0 | -11.1 | 0 | 16.7 | 3.7 |
| O=C1CC2(CCCC2)CC(=O)N1CCCCN1CCN(c2ncccn2)CC1 [buspirone] (100 µM) | 4.76 | 44.9 | 0.5 | 0 | 9.52 | 42.9 | -79.9 | 57.1 | -53.2 | 4.76 | 12.5 | -20.5 | -81.2 | 0 | -41 | 0 | 19.1 | 43 |
| CN(C)CCCC1(c2ccc(F)cc2)OCc2cc(C#N)ccc21 (stereo not given) [citalopram hydrobromide] (31.6 µM) | 0 | 0 | 1.25 | 0 | 16.7 | 16.7 | 6.16 | 33.3 | -16.4 | 16.7 | 0 | 4.85 | -6.94 | 0 | 3.2 | 0 | ≤ 0 | 1.41 |
| CN(C)CCCC1(c2ccc(F)cc2)OCc2cc(C#N)ccc21 (stereo not given) [citalopram hydrobromide] (100 µM) | 0 | 0 | 1.5 | 0 | 8.33 | ≤ 0 | -6.21 | 25 | -22.5 | 8.33 | 0 | 15.3 | -0.52 | 0 | -4.27 | 0 | 8.33 | 1.35 |
| CN(C)CCCC1(c2ccc(F)cc2)OCc2cc(C#N)ccc21 (stereo not given) [citalopram hydrobromide] (316 µM) | 0 | 0.559 | -3.5 | 0 | 13 | 4.35 | 1.47 | 13 | -25.1 | 13 | 0 | 12.2 | 6.83 | 0 | 10.9 | 0 | 8.7 | 1.16 |
| CN(C)CCCC1(c2ccc(F)cc2)OCc2cc(C#N)ccc21 (stereo not given) [citalopram hydrobromide] (1000 µM) | 0 | 16.8 | 40.2 | 0 | 83.3 | 16.7 | -57.3 | 8.33 | -42.7 | 83.3 | 0 | 11.2 | -71.1 | 0 | -48.7 | 0 | ≤ 0 | 17.8 |
| CN1CCN(C2=Nc3cc(Cl)ccc3Nc3ccccc32)CC1 [clozapine] (3.16 µM) | 4.17 | 69.7 | 26.8 | 8.33 | 20.8 | 16.7 | -90.3 | 33.3 | -40.6 | 20.8 | 0 | -27.9 | -87.9 | 0 | -74 | 0 | 20.8 | 74.7 |
| CN1CCN(C2=Nc3cc(Cl)ccc3Nc3ccccc32)CC1 [clozapine] (10 µM) | 4.17 | 70.9 | 15.2 | 8.33 | 58.3 | 29.2 | -89.8 | 75 | -39.6 | 54.2 | 0 | -100 | -90.5 | 4.17 | -75.7 | 0 | 25 | 73.9 |
| CN1CCN(C2=Nc3cc(Cl)ccc3Nc3ccccc32)CC1 [clozapine] (31.6 µM) | 29.2 | 75.8 | -3 | 4.17 | 87.5 | 54.2 | -93.4 | 66.7 | -34.2 | 50 | 0 | -27.4 | -91.3 | 29.2 | -76.4 | 0 | ≤ 0 | 77.6 |
| CN1CCN(C2=Nc3cc(Cl)ccc3Nc3ccccc32)CC1 [clozapine] (100 µM) | 9.52 | 87.8 | -4.5 | 28.6 | 81 | 62.5 | -96.9 | 79.2 | -29.6 | 23.8 | 0 | -11.2 | -96.2 | 57.1 | -79.5 | 0 | ≤ 0 | 77.6 |
| CN1C(=O)CN=C(c2ccccc2)c2cc(Cl)ccc21 [diazepam] (3.16 µM) | 0 | -0.17 | -3 | 0 | 0 | 41.7 | 21.1 | 29.2 | -6.66 | 0 | 0 | -3.35 | -4.64 | 0 | 16.7 | 0 | ≤ 0 | -5.99 |

From the supplement of paper PMC11781733
